Experimental data taken from patent US12599588B2, “Inhibitor for V-ATPase activity, antibacterial agent, medicine, antibacterial method and screening method” (Japan Science and Technology Agency, priority 2019, dated 2026).
Read-outs that look alike come from different tables or passages of the source.

How the values were obtained:
[1] = molecular target: T1, V-ATPase (purified from enterococci or recombinant E. coli) (Enterococcus hirae, UniProt P43439+P43457); test: ATPase activity measurement (molybdenum blue method, primary screening); format: biochemical
T1 construct: made in house; host or cells: Enterococcus hirae (native) or recombinant E. coli
Description: The ATPase activity can be measured by a molybdenum blue method for measuring absorbance of the inorganic phosphoric acid generated by hydrolysis of ATP. As the reaction conditions, conditions for measuring the ATPase activity can be adopted. As the buffer solution used in the reaction, Tris-HCl buffer can be used. The reaction time is usually 10 to 60 minutes, but can be appropriately adjusted depending on the air temperature or the like. The reaction of V-ATPase is terminated with the addition of a surfactant such as sodium dodecyl sulfate (SDS), and into which a color-developing liquid (such as ferrous sulfate) is added to give a color, and then the concentration of the inorganic phosphoric acid can be calculated by the measurement of the absorbance at a wavelength of 650 nm.
From the concentration of inorganic phosphoric acid calculated above, the inhibition rate of the V-ATPase reaction can be calculated. That is, a graph is created in which the inhibition rate is plotted on the vertical axis and the concentration of compound is plotted on the horizontal axis, and the concentration (IC50) at which the inhibition rate becomes 50% is determined. As the concentration of compound at which IC50 is obtained becomes lower, a higher V-ATPase inhibitory effect is exerted with a small amount, and accordingly, the compound can be taken as a candidate compound for the inhibitor for V-ATPase activity.
The V-ATPase was prepared by the method disclosed in the following papers. • Paper 1: Takeshi Murata, et. al, “Purification and Reconstitution of Na^+-translocating Vacuolar ATPase from Enterococcus hirae”, J. Biol. Chem. 272, 24885-24890 (1997) • Paper 2: Takeshi Murata, et. al, “Torque Generation of Enterococcus hirae V-ATPase”, J. Biol. Chem. 289, 31212-31223 (2014)
ATPase activity measurement was conducted by a molybdenum blue method that quantifies the inorganic phosphoric acid generated by hydrolysis of ATP with the use of absorbance measurement. The measurement was conducted in a 96-well plate, and 0.05% DDM (n-dodecyl-β-D-maltoside), 10 μg/mL of V-ATPase (purified from enterococci or recombinant E. coli), and 20 μM of a compound were added into a buffer (100 mM Tris-HCl at pH 8.5, 100 mM NaCl, 5 mM MgSO4, 10% glycerol). Into the mixture obtained above, ATP was added so as to be 5 mM, the whole amount was set to 100 μL, the reaction was started while stirring the mixture with a stirrer, and the reaction time was set to 30 minutes. Since the ATPase activity changes largely depending on the reaction temperature, the reaction time was adjusted within the range of 10 to 60 minutes corresponding to the air temperature on the day of the experiment. With the addition of 50 μL of 20% SDS, the V-ATPase was denatured and the reaction was terminated, and into the resultant mixture, 75 μL of color-developing liquid (5% ferrous sulfate, 1.6% ammonium molybdate, and 1 M sulfuric acid) was added to give a color. Immediately, the absorbance at a wavelength of 650 nm was measured by using a plate reader. Four kinds of KH2PO4 aqueous solutions of 0.2 mM, 0.5 mM, 1.0 mM, and 1.5 mM were reacted with MQ (ultrapure water) in the same experiment system, and then the activity of V-ATPase was measured by determining the concentration of generated inorganic phosphoric acid with the use of a created calibration curve. In this regard, a compound that had inhibited 50% or more of the activity of V-ATPase was diluted stepwisely so as to have a concentration of 10 μM, 5 μM, 2 μM, 1 μM, 500 nM, 200 nM, 100 nM, and 50 nM, and the measurement similar to the above was conducted.
From the results of the above measurement of ATPase activity, the inhibition rate was calculated comparing the decrease in the activity by assuming the activity under the condition of no compound addition as 100. A graph was created in which the inhibition rate was plotted on the vertical axis and the concentration of compound was plotted on the horizontal axis (FIG. 2). […]

[2] = test system: enterococci (Enterococcus hirae); test: Growth experiment of enterococci (secondary screening), OD600 at pH 7.0 and pH 8.5; format: cell-based; parameters: Growth inhibition rate (%): concentration or dose not given beside the values; conditions: for Specificity: growth inhibition at pH 8.5 versus pH 7.0
Description: In the culture of enterococci (Enterococcus hirae), a culture medium in which the Na^+ concentration had been adjusted by adding a buffer solution using 2% tryptone and 1% yeast extract as the base was used. In a case of adding glucose, glucose prepared in a 50% solution was added so as to be 1% into the culture medium when the culture medium was used. The whole amount 200 μL was cultured using a 96-well plate, and OD600 was measured every hour by using a plate reader. By using culture media at pH 7.0 and pH 8.5, the effect of pH on the growth was observed. In culture of bacteria, the pH often fluctuates largely due to the decomposition of the sugars required for the growth, and it is extremely important to maintain a constant pH in this experiment, and therefore, the pH was maintained constant with the addition of a buffer suitable for each pH. Since the V-ATPase is expressed only under an alkaline condition, the growth inhibition observed with the addition of an inhibitor is largely dependent on the pH.
IC50 and the like of the above 24 kinds of compounds are described in the following table. […] Furthermore, with respect to the symbol “n.a.”, a compound having a growth inhibition rate of 60% or more at pH 7.0 is determined that there was the growth inhibition. In addition, the growth inhibition rate of a compound having no clear inhibition is also recorded for reference.

[3] = IC50 (nM), Table 2, inhibition of V-ATPase ATPase activity, pH 8.5 buffer
[4] = high affinity for V-ATPase (IC50), unit inferred
[5] = Table 2, E. hirae growth, pH not stated (media pH 7.0 and pH 8.5)
[6] = Table 2, inhibition of V-ATPase ATPase activity, pH 8.5 buffer, read-out: IC50
[7] = Table 3, 2-phenyl benzimidazole derivatives
[8] = Table 3, 2-phenyl benzimidazole derivatives, read-out: IC50

Row | SMILES | Growth inhibition rate (%) [2, 5] [%] | Specificity ([2]; Table 2) | IC50 [1, 6] [nM] | other results
1 | O=C1N=C(NC2CCCC2)S/C1=C\c1ccc(OC(F)F)cc1OC(F)F [Compound V-6, (Z)-5-(2,4-bis(difluoromethoxy)benzylidene)-2-(cyclopentylamino) thiazol-4 (5H)-one] | 77.9 | + (there was no growth inhibition at pH 7.0 but was the growth inhibition at pH 8.5) | – | IC50 [1, 3]: 80 nM; IC50 [1, 4]: ≤ 400 nM; non-specific inhibition / non-specific bond [2]: no non-specific inhibition
2 | CN(C)c1ccc2nc3ccc(N(C)C)cc3[s+]c2c1 [Compound V-27] | 64.0 | + (there was no growth inhibition at pH 7.0 but was the growth inhibition at pH 8.5) | – | IC50 [1, 3]: 3000 nM
3 | CC1=C(/C=C/C(C)=C/C=C/C(C)=C/C(=O)Nc2ccc(O)cc2)C(C)(C)CCC1 [Compound V-84, (2E,4E,6E,8E)-N-(4-hydroxyphenyl)-3,7-dimethyl-9-(2,6,6-trimethylcyclohexyl-1-en-1-yl)nona-2,4,6,8-tetraeneamide] | 90.6 | − (there was no growth inhibition in any case) | – | IC50 [1, 3]: 80 nM; IC50 [1, 4]: ≤ 400 nM; non-specific inhibition / non-specific bond [2]: non-specific inhibition
4 | CCC(C)C1OC2(CCC1C)CC1CC(CC=C(C)C(OC3CC(OC)C(OC4CC(OC)C(O)C(C)O4)C(C)O3)C(C)C=CC=C3COC4C(O)C(C)=CC(C(=O)O1)C34O)O2 (stereo not drawn) [Compound V-85] | 66.4 | + (there was no growth inhibition at pH 7.0 but was the growth inhibition at pH 8.5) | – | IC50 [1, 3]: 10000 nM
5 | CCCCCCCCc1ccc(O)c(C=O)c1 [Compound V-91] | 90.9 | n.a. (there was the growth inhibition in any case) | 850 | –
6 | CCCCC#Cc1cncc(C(=O)N/N=C/c2cccs2)c1 [Compound V-99] | 6.7 | − (there was no growth inhibition in any case) | 2500 | –
7 | CCCCCOc1ccc(NC(=O)c2cccs2)cc1 [Compound V-103] | 45.3 | + (there was no growth inhibition at pH 7.0 but was the growth inhibition at pH 8.5) | – | IC50 [1, 3]: 100 nM
8 | CC(C)CN(CC(C)C)c1ccc([N+](=O)[O-])cc1/C=N/Nc1ccccc1 [Compound V-105] | 90.8 | n.a. (there was the growth inhibition in any case) | 1000 | –
9 | CC(Cc1ccc(O)c(O)c1)C(C)Cc1ccc(O)c(O)c1 (stereo not drawn) [Compound V-115] | 0.3 | − (there was no growth inhibition in any case) | – | IC50 [1, 3]: 400 nM
10 | CC1(C)CC2(CC(C)(C)c3cc(O)c(O)cc32)c2cc(O)c(O)cc21 [Compound V-124] | 49.2 | + (there was no growth inhibition at pH 7.0 but was the growth inhibition at pH 8.5) | 300 | –
11 | CCCCCCCCCOc1ccc(C=C2C(=O)NC(=O)NC2=O)cc1 [Compound V-130, 5-(4-(nonyloxy)benzylidene)pyrimidine-2,4,6 (1H,3H,5H)-trione] | 88.2 | − (there was no growth inhibition in any case) | – | IC50 [1, 3]: 20 nM; IC50 [1, 4]: ≤ 400 nM; non-specific inhibition / non-specific bond [2]: non-specific inhibition
12 | CCCCC1CCC(C(=O)Oc2ccc(C=O)c(O)c2)CC1 (stereo not drawn) [Compound V-149] | 90.5 | n.a. (there was the growth inhibition in any case) | 4500 | –
13 | CN(C)C(=S)N/N=C1\C(=O)C(c2ccccc2)(c2ccccc2)c2ccccc21 [Compound V-150] | 70.4 | n.a. (there was the growth inhibition in any case) | 500 | –
14 | COc1ccc(C(=O)N/N=C/C(C)=C/c2ccc(C(C)C)cc2)cc1 [Compound V-153] | 13.3 | − (there was no growth inhibition in any case) | 1000 | –
15 | O=C(NC(c1ccccc1)c1cc([N+](=O)[O-])c2cccnc2c1O)C1CCCCC1 (stereo not drawn) [Compound V-157] | 84.2 | n.a. (there was the growth inhibition in any case) | 2000 | –
16 | Cc1ccc2[nH]c(-c3ccc(N4CCCC4)cc3)nc2c1 [Compound V-161-01] | – | – | – | IC50 ([1]; IC50 (nM), Table 3, 2-phenyl benzimidazole derivatives): 50 nM; Growth inhibition rate (%) [2, 7]: 89.7%; Specificity ([2]; Table 3): + (there was no growth inhibition at pH 7.0 but was the growth inhibition at pH 8.5)
17 | CCc1ccc(-c2nc3cc(C)ccc3[nH]2)cc1 [Compound V-161-02] | – | – | – | IC50 [1, 8]: 120 nM; Growth inhibition rate (%) [2, 7]: 88.5%; Specificity ([2]; Table 3): + (there was no growth inhibition at pH 7.0 but was the growth inhibition at pH 8.5)
18 | Cc1ccc2[nH]c(-c3ccc(Br)cc3)nc2c1 [Compound V-161-03] | – | – | – | IC50 [1, 8]: 120 nM; Growth inhibition rate (%) [2, 7]: 89.8%; Specificity ([2]; Table 3): + (there was no growth inhibition at pH 7.0 but was the growth inhibition at pH 8.5)
19 | Cc1ccc2[nH]c(-c3ccc(I)cc3)nc2c1 [Compound V-161-04] | – | – | – | IC50 [1, 8]: 120 nM; Growth inhibition rate (%) [2, 7]: 90.3%; Specificity ([2]; Table 3): + (there was no growth inhibition at pH 7.0 but was the growth inhibition at pH 8.5)
20 | COc1ccc(-c2nc3cc(C)ccc3[nH]2)cc1 [Compound V-161-10] | – | – | – | IC50 [1, 8]: 120 nM; Growth inhibition rate (%) [2, 7]: 86.8%; Specificity ([2]; Table 3): + (there was no growth inhibition at pH 7.0 but was the growth inhibition at pH 8.5)
21 | CCOc1ccc2nc3cc(N)ccc3c(N)c2c1 [Compound V-170] | 49.7 | + (there was no growth inhibition at pH 7.0 but was the growth inhibition at pH 8.5) | 10000 | –
22 | N=C(N)Nc1nc(-c2ccccc2)c2cc(F)ccc2n1 [Compound V-171] | 85.6 | + (there was no growth inhibition at pH 7.0 but was the growth inhibition at pH 8.5) | 2500 | –
23 | CCCOc1ccc(/C=N/NC(=N)N)c(OCCC)c1 [Compound V-189] | 91.2 | + (there was no growth inhibition at pH 7.0 but was the growth inhibition at pH 8.5) | 4500 | –
24 | COc1ccc(C(c2ccc3cccnc3c2O)N2CCOCC2)cc1 (stereo not drawn) [Compound V-201] | 19.6 | − (there was no growth inhibition in any case) | 4000 | –
